Data published in US20190233884A1 (University of Southern California, priority 2016, published 2019).

System: patients with refractory metastatic colorectal cancer (mCRC)
Test: PFS, OS and disease control in the training (evaluation) cohort of refractory mCRC patients receiving TAS-102 (n=52, Japan), by baseline characteristics, SNP genotype and toxicity
Format: in vivo, human
Conditions: for PFS HR (95% CI) ‡ / OS HR (95% CI)‡: multivariable; for HR for OS / HR for PFS / Disease Control Rate PD / Disease Control Rate SD / Overall Survival Median, months (95% CI) / Progression-free Survival Median, months (95% CI) / Overall Survival HR (95% CI) multivariate / Overall Survival HR (95% CI) univariate / Progression-free Survival HR (95% CI) multivariate / Progression-free Survival HR (95% CI) univariate / OS / PFS: training cohort
Description: All patients underwent the treatment in salvage-line setting. […]
Genomic DNA was extracted from peripheral whole blood in patients of all cohorts using the QIAmp Kit (Qiagen, Valencia, Calif., USA) according to the manufacturer's protocol (www.qiagen.com). The candidate SNPs were genotyped using PCR-based direct DNA sequence analysis by ABI 3100A Capillary Genetic Analyzer and Sequencing Scanner v1.0 (Applied Biosystems). Amplification of extracted DNA was carried out using both forward and reverse primers for each gene polymorphism as shown in Table 1. […] The investigators analyzing SNPs were blinded to the clinical data of the study patients.
The primary endpoint in this study was progression-free survival (PFS), and the secondary endpoints were overall survival (OS) and disease control rate (DCR). PFS was calculated from the date of starting treatment to the first observation of disease progression or death from any cause. If a patient had no disease progression or death, PFS was censored at the date of last follow up. OS was calculated from the date of starting treatment until the date of death from any cause or the date of the last follow-up, at which point OS was censored. The disease control rate (DCR) was defined as the proportion of patients who achieved a stable disease (SD) or […] according to RECISTv1.1. Chi-square test was used to examine the difference in baseline patient characteristics among the three cohorts. Allelic distribution of all SNPs by ethnicity for deviation from Hardy-Weinberg equilibrium and the allelic frequencies of SNPs were tested using the Chi-square tests with one degree of freedom. The associations between candidate SNPs and disease control, and toxicities were examined using contingency tables and Fisher's exact test. The associations of SNPs with PFS and OS were analysed using Kaplan-Meier curves and the log-rank test. Because the true mode of inheritance of candidate SNPs was not established yet, a codominant or dominant genetic model if appropriate was considered.
All patients underwent the treatment in salvage-line setting. […] In all patients, adverse events were graded according to the Common Terminology Criteria for Adverse Events, version 4.0. […]
Genomic DNA was extracted from peripheral whole blood in patients of all cohorts using the QIAmp Kit (Qiagen, Valencia, Calif., USA) according to the manufacturer's protocol (www.qiagen.com). The candidate SNPs were tested using PCR-based direct DNA sequence analysis by ABI 3100A Capillary Genetic Analyzer and Sequencing Scanner v1.0 (Applied Biosystems). […] The investigators analyzing SNPs were blinded to the clinical data.
The primary endpoint in this study was progression-free survival (PFS), and the secondary endpoints were overall survival (OS) and disease control rate (DCR).

[1] = p21 rs1801270 Any C vs A/A, univariate
[2] = p21 rs1801270 C/C vs A/A, univariate
[3] = p53 rs1042522 Any G vs C/C, univariate
[4] = p53 rs1042522 C/G vs C/C, univariate
[5] = p53 rs1042522 G/G vs C/C, univariate
[6] = MATE1/OCT2 combination Good vs Poor, univariate
[7] = MATE1/OCT2 combination, multivariable adjusted for liver metastases and adjuvant history
[8] = MATE1 rs2289669/OCT2 rs316019 combination, Good category
[9] = MATE1 rs2289669/OCT2 rs316019 combination, Poor category
[10] = MATE1 rs2289669 G/A vs G/G, univariate
[11] = OCT2 rs316019 C/A and A/A combined vs C/C

Trifluridine/tipiracil [TAS-102]
PFS HR (95% CI) ‡ (p21 rs1801270 Any C vs A/A): 0.74 (0.37, 1.49) | OS HR (95% CI)† [1]: 0.64 (0.27, 1.56) | PFS HR (95% CI) † [1]: 0.88 (0.44, 1.74) | OS median, months (95% CI) (p21 rs1801270 C/C): 6.3 (3.1, 10.7) months | PFS median, months (95% CI) (p21 rs1801270 C/C): 2.7 (1.6, 4.6) months | OS HR (95% CI)‡ (p21 rs1801270 C/C vs A/A): 0.72 (0.24, 2.15) | PFS HR (95% CI) ‡ (p21 rs1801270 C/C vs A/A): 0.77 (0.33, 1.79) | OS HR (95% CI)† [2]: 0.85 (0.29, 2.48) | PFS HR (95% CI) † [2]: 0.97 (0.43, 2.17) | OS median, months (95% CI) (p53 rs1042522 Any G): 7.2 (5.4, 15.6+) months | PFS median, months (95% CI) (p53 rs1042522 Any G): 3.0 (2.1, 3.4) months | OS HR (95% CI)‡ (p53 rs1042522 Any G vs C/C): 1.28 (0.52, 3.19) | PFS HR (95% CI) ‡ (p53 rs1042522 Any G vs C/C): 1.10 (0.58, 2.09) | OS HR (95% CI)† [3]: 1.15 (0.47, 2.81) | PFS HR (95% CI) † [3]: 0.89 (0.48, 1.65) | OS median, months (95% CI) (p53 rs1042522 C/C): 8.7 (5.3, 14.8+) months | PFS median, months (95% CI) (p53 rs1042522 C/C): 2.5 (1.6, 4.4) months | OS median, months (95% CI) (p53 rs1042522 C/G): 6.3 (4.4, 12.4+) months | PFS median, months (95% CI) (p53 rs1042522 C/G): 3.0 (1.9, 3.5) months | OS HR (95% CI)‡ (p53 rs1042522 C/G vs C/C): 1.61 (0.64, 4.06) | PFS HR (95% CI) ‡ (p53 rs1042522 C/G vs C/C): 1.12 (0.57, 2.21) | OS HR (95% CI)† [4]: 1.35 (0.55, 3.35) | PFS HR (95% CI) † [4]: 0.86 (0.45, 1.65) | PFS median, months (95% CI) (p53 rs1042522 G/G): 2.3 (0.7, 4.6+) months | OS HR (95% CI)‡ (p53 rs1042522 G/G vs C/C): 0.38 (0.05, 3.11) | PFS HR (95% CI) ‡ (p53 rs1042522 G/G vs C/C): 1.04 (0.38, 2.86) | OS HR (95% CI)† [5]: 0.41 (0.05, 3.29) | PFS HR (95% CI) † [5]: 1.02 (0.37, 2.77) | HR for OS [6]: 0.39 | HR for PFS [6]: 0.44 | HR for OS [7]: 0.41 | HR for PFS [7]: 0.45 | Disease Control Rate PD (MATE1_OCT019 good): 20 (59%) | Disease Control Rate SD (MATE1_OCT019 good): 14 (41%) | Overall Survival Median, months (95% CI) (MATE1_OCT019 good): 8.3 (6.3, 15.6) months | Progression-free Survival Median, months (95% CI) (MATE1_OCT019 good): 3.4 (2.1, 4.1) months | Overall Survival HR (95% CI) multivariate (MATE1_OCT019 good vs poor): 0.41 (0.16, 1.04) | Overall Survival HR (95% CI) univariate (MATE1_OCT019 good vs poor): 0.39 (0.15, 0.98) | Progression-free Survival HR (95% CI) multivariate (MATE1_OCT019 good vs poor): 0.45 (0.23, 0.88) | Progression-free Survival HR (95% CI) univariate (MATE1_OCT019 good vs poor): 0.44 (0.22, 0.85) | Disease Control Rate PD (MATE1_OCT019 poor): 11 (92%) | Disease Control Rate SD (MATE1_OCT019 poor): 1 (8%) | Overall Survival Median, months (95% CI) (MATE1_OCT019 poor): 4.9 (2.8, 10.7) months | Progression-free Survival Median, months (95% CI) (MATE1_OCT019 poor): 2.3 (1.2, 2.9) months | OS [8]: 8.3 months | PFS [8]: 3.4 months | OS [9]: 4.9 months | PFS [9]: 2.3 months | Disease Control Rate PD (MATE1 rs2289669 A/A): 8 (80%) | Disease Control Rate SD (MATE1 rs2289669 A/A): 2 (20%) | Overall Survival Median, months (95% CI) (MATE1 rs2289669 A/A): 4.9 (2.8, 6.5+) months | Progression-free Survival Median, months (95% CI) (MATE1 rs2289669 A/A): 2.3 (1.2, 3.3) months | Overall Survival HR (95% CI) multivariate (MATE1 rs2289669 A/A vs G/G): 1.98 (0.56, 6.99) | Overall Survival HR (95% CI) univariate (MATE1 rs2289669 A/A vs G/G): 2.40 (0.59, 8.37) | Progression-free Survival HR (95% CI) multivariate (MATE1 rs2289669 A/A vs G/G): 0.92 (0.38, 2.24) | Progression-free Survival HR (95% CI) univariate (MATE1 rs2289669 A/A vs G/G): 0.94 (0.40, 2.18) | Disease Control Rate PD (MATE1 rs2289669 Any A): 22 (61%) | Disease Control Rate SD (MATE1 rs2289669 Any A): 14 (39%) | Overall Survival Median, months (95% CI) (MATE1 rs2289669 Any A): 8.3 (5.3, 15.6+) months | Progression-free Survival Median, months (95% CI) (MATE1 rs2289669 Any A): 3.0 (2.1, 3.7) months | Overall Survival HR (95% CI) multivariate (MATE1 rs2289669 Any A vs G/G): 0.93 (0.33, 2.59) | Overall Survival HR (95% CI) univariate (MATE1 rs2289669 Any A vs G/G): 1.03 (0.37, 2.83) | Progression-free Survival HR (95% CI) multivariate (MATE1 rs2289669 Any A vs G/G): 0.53 (0.25, 1.13) | Progression-free Survival HR (95% CI) univariate (MATE1 rs2289669 Any A vs G/G): 0.56 (0.28, 1.13) | Disease Control Rate PD (MATE1 rs2289669 G/A): 14 (54%) | Disease Control Rate SD (MATE1 rs2289669 G/A): 12 (45%) | OS (MATE1 rs2289669 G/A): 12.4 months | Overall Survival Median, months (95% CI) (MATE1 rs2289669 G/A): 12.4 (5.7, 15.6+) months | PFS (MATE1 rs2289669 G/A): 3.4 months | Progression-free Survival Median, months (95% CI) (MATE1 rs2289669 G/A): 3.4 (2.1, 4.4) months | Overall Survival HR (95% CI) multivariate (MATE1 rs2289669 G/A vs G/G): 0.59 (0.23, 2.11) | Overall Survival HR (95% CI) univariate (MATE1 rs2289669 G/A vs G/G): 0.75 (0.26, 2.28) | Progression-free Survival HR (95% CI) multivariate (MATE1 rs2289669 G/A vs G/G): 0.41 (0.18, 0.94) | Progression-free Survival HR (95% CI) univariate (MATE1 rs2289669 G/A vs G/G): 0.44 (0.20, 0.93) | HR for OS [10]: 0.76 | HR for PFS [10]: 0.44 | HR for PFS (MATE1 rs2289669 G/A, multivariate adjusted for liver metastases and adjuvant history): 0.41 | Disease Control Rate PD (MATE1 rs2289669 G/G): 9 (90%) | Disease Control Rate SD (MATE1 rs2289669 G/G): 1 (10%) | OS (MATE1 rs2289669 G/G): 8.1 months | Overall Survival Median, months (95% CI) (MATE1 rs2289669 G/G): 8.1 (5.4, 10.7+) months | PFS (MATE1 rs2289669 G/G): 2.0 months | Progression-free Survival Median, months (95% CI) (MATE1 rs2289669 G/G): 2.0 (1.4, 3.4) months | Disease Control Rate PD (OCT2 rs316019 A/A): 1 (25%) | Disease Control Rate SD (OCT2 rs316019 A/A): 3 (75%) | Disease Control Rate PD (OCT2 rs316019 C/A): 6 (67%) | Disease Control Rate SD (OCT2 rs316019 C/A): 3 (33%) | Progression-free Survival Median, months (95% CI) (OCT2 rs316019 C/A and A/A combined): 3.0 (1.2, 6.0+) months | Overall Survival HR (95% CI) multivariate [11]: 1.74 (0.55, 5.51) | Overall Survival HR (95% CI) univariate [11]: 1.04 (0.38, 2.89) | Progression-free Survival HR (95% CI) multivariate [11]: 1.32 (0.58, 3.02)
